Tests used:
T-47D [1] = test: drug sensitivity score (DSS) (DSS (dimensionless)); higher = more sensitive; extreme values may be limits of the assay; conditions: 72 h
Procedure, shortened: (§1)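 Breast cancer cell lines and their resistant derivatives were seeded into 384-well plates holding FO2Baq library drugs at five concentrations spanning a 10 000-fold range. Resistant lines were in medium with 1 μM of the selecting drug. Cells were incubated 72 h at 37 °C, and CellTiter-Glo viability was read on a PHERAstar and normalised to vehicle-only and positive controls. Drug sensitivity score, relative IC50 (curve midpoint) and top-dose inhibition came from logistic dose–response fits (Breeze pipeline).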

T-47D Tam1 [2] = test: as above; conditions: 4-OH-tamoxifen in medium 1 µM; 72 h
Procedure, shortened: as §1

ZR-75-1 [3] = test: as above; conditions: 72 h
Procedure, shortened: as §1

MCF-7 Tam1 [4] = test: as above; conditions: 4-OH-tamoxifen in medium 1 µM; 72 h
Procedure, shortened: as §1

ZR-75-1 Tam2 [5] = test: as above; conditions: 4-OH-tamoxifen in medium 1 µM; 72 h
Procedure, shortened: as §1

BT-474 Tam1 [6] = test: as above; conditions: 4-OH-tamoxifen in medium 1 µM; 72 h
Procedure, shortened: as §1

BT-474 Tam2 [7] = test: as above; conditions: 4-OH-tamoxifen in medium 1 µM; 72 h
Procedure, shortened: as §1

ZR-75-1 Tam1 [8] = test: as above; conditions: 4-OH-tamoxifen in medium 1 µM; 72 h
Procedure, shortened: as §1

T-47D Tam2 [9] = test: as above; conditions: 4-OH-tamoxifen in medium 1 µM; 72 h
Procedure, shortened: as §1

BT-474 [10] = test: as above; conditions: 72 h
Procedure, shortened: as §1

MCF-7 [11] = test: as above; conditions: 72 h
Procedure, shortened: as §1

ZR-75-1 [12] = test: relative IC50 (midpoint of fitted logistic curve, plateau may be below 50% inhibition; CellTiter-Glo viability); higher = less potent; conditions: 72 h
Procedure, shortened: as §1

MCF-7 Tam1 [13] = test: as above; conditions: 4-OH-tamoxifen in medium 1 µM; 72 h
Procedure, shortened: as §1

ZR-75-1 Tam2 [14] = test: as above; conditions: 4-OH-tamoxifen in medium 1 µM; 72 h
Procedure, shortened: as §1

BT-474 Tam1 [15] = test: as above; conditions: 4-OH-tamoxifen in medium 1 µM; 72 h
Procedure, shortened: as §1

BT-474 Tam2 [16] = test: as above; conditions: 4-OH-tamoxifen in medium 1 µM; 72 h
Procedure, shortened: as §1

ZR-75-1 Tam1 [17] = test: as above; conditions: 4-OH-tamoxifen in medium 1 µM; 72 h
Procedure, shortened: as §1

T-47D Tam2 [18] = test: as above; conditions: 4-OH-tamoxifen in medium 1 µM; 72 h
Procedure, shortened: as §1

BT-474 [19] = test: as above; conditions: 72 h
Procedure, shortened: as §1

T-47D [20] = test: as above; conditions: 72 h
Procedure, shortened: as §1

MCF-7 [21] = test: as above; conditions: 72 h
Procedure, shortened: as §1

T-47D Tam1 [22] = test: as above; conditions: 4-OH-tamoxifen in medium 1 µM; 72 h
Procedure, shortened: as §1

| relative IC50 (MCF-7 Tam1 [13]) [µM] | relative IC50 (BT-474 Tam1 [15]) [µM] | relative IC50 (BT-474 Tam2 [16]) [µM] | relative IC50 (T-47D Tam2 [18]) [µM] | relative IC50 (BT-474 [19]; 4-OH-tamoxifen in medium 0 µM) [µM] | relative IC50 (T-47D [20]; 4-OH-tamoxifen in medium 0 µM) [µM] | relative IC50 (MCF-7 [21]; 4-OH-tamoxifen in medium 0 µM) [µM] | relative IC50 (T-47D Tam1 [22]) [µM] | relative IC50 (MCF-7 [21]; 4-OH-tamoxifen in medium 1 µM) [µM] | relative IC50 (BT-474 [19]; 4-OH-tamoxifen in medium 1 µM) [µM] | relative IC50 (T-47D [20]; 4-OH-tamoxifen in medium 1 µM) [µM] | SMILES | drug sensitivity score (T-47D [1]; 4-OH-tamoxifen in medium 0 µM) | drug sensitivity score (T-47D [1]; 4-OH-tamoxifen in medium 1 µM) | drug sensitivity score (T-47D Tam1 [2]) | drug sensitivity score (ZR-75-1 [3]; 4-OH-tamoxifen in medium 0 µM) | drug sensitivity score (ZR-75-1 [3]; 4-OH-tamoxifen in medium 1 µM) | drug sensitivity score (MCF-7 Tam1 [4]) | drug sensitivity score (ZR-75-1 Tam2 [5]) | drug sensitivity score (BT-474 Tam1 [6]) | drug sensitivity score (BT-474 Tam2 [7]) | drug sensitivity score (ZR-75-1 Tam1 [8]) | drug sensitivity score (T-47D Tam2 [9]) | drug sensitivity score (BT-474 [10]; 4-OH-tamoxifen in medium 0 µM) | drug sensitivity score (BT-474 [10]; 4-OH-tamoxifen in medium 1 µM) | drug sensitivity score (MCF-7 [11]; 4-OH-tamoxifen in medium 0 µM) | drug sensitivity score (MCF-7 [11]; 4-OH-tamoxifen in medium 1 µM) | relative IC50 (ZR-75-1 [12]; 4-OH-tamoxifen in medium 0 µM) [µM] | relative IC50 (ZR-75-1 [12]; 4-OH-tamoxifen in medium 1 µM) [µM] | relative IC50 (ZR-75-1 Tam2 [14]) [µM] | relative IC50 (ZR-75-1 Tam1 [17]) [µM] |
| --- | --- | --- | --- | --- | --- | --- | --- | --- | --- | --- | --- | --- | --- | --- | --- | --- | --- | --- | --- | --- | --- | --- | --- | --- | --- | --- | --- | --- | --- | --- |
| > 10 | > 10 | > 10 | 1.71 | > 10 | – | – | – | – | – | – | CC[C@H](Nc1ncnc2[nH]cnc12)c1nc2cccc(F)c2c(=O)n1-c1ccccc1 [CAL-101] | 0.0938 | 0.0607 | 0.811 | 4.36 | 4.39 | 0 | 5.82 | 0 | 0 | 4.88 | 2.66 | 0 | 0.147 | 2.04 | 0.584 | 1.21 | 1.21 | 1.33 | 1.14 |
| > 10 | – | 1.62 | 2.71 | 1.1 | – | 2.53 | 0.492 | 1.89 | – | – | COc1ccccc1S(=O)(=O)Nc1ccc2c(c1)CN(C)C(=O)N2 [PFI-1] | 0.887 | 0.0577 | 4.01 | 0.0459 | 1.01 | 0 | 1.77 | 0.704 | 2.35 | 1.48 | 1.76 | 2.69 | 0.561 | 2.8 | 2.92 | – | – | – | – |

More lines, now with the values behind:

| SMILES | relative IC50 (MCF-7 Tam1 [13]) [µM] | relative IC50 (BT-474 Tam1 [15]) [µM] | relative IC50 (BT-474 Tam2 [16]) [µM] | relative IC50 (T-47D Tam2 [18]) [µM] | relative IC50 (BT-474 [19]; 4-OH-tamoxifen in medium 0 µM) [µM] | relative IC50 (T-47D [20]; 4-OH-tamoxifen in medium 0 µM) [µM] | relative IC50 (MCF-7 [21]; 4-OH-tamoxifen in medium 0 µM) [µM] | relative IC50 (T-47D Tam1 [22]) [µM] | relative IC50 (MCF-7 [21]; 4-OH-tamoxifen in medium 1 µM) [µM] | relative IC50 (BT-474 [19]; 4-OH-tamoxifen in medium 1 µM) [µM] | relative IC50 (T-47D [20]; 4-OH-tamoxifen in medium 1 µM) [µM] | drug sensitivity score (T-47D [1]; 4-OH-tamoxifen in medium 0 µM) | drug sensitivity score (T-47D [1]; 4-OH-tamoxifen in medium 1 µM) | drug sensitivity score (T-47D Tam1 [2]) | drug sensitivity score (ZR-75-1 [3]; 4-OH-tamoxifen in medium 0 µM) | drug sensitivity score (ZR-75-1 [3]; 4-OH-tamoxifen in medium 1 µM) | drug sensitivity score (MCF-7 Tam1 [4]) | drug sensitivity score (ZR-75-1 Tam2 [5]) | drug sensitivity score (BT-474 Tam1 [6]) | drug sensitivity score (BT-474 Tam2 [7]) | drug sensitivity score (ZR-75-1 Tam1 [8]) | drug sensitivity score (T-47D Tam2 [9]) | drug sensitivity score (BT-474 [10]; 4-OH-tamoxifen in medium 0 µM) | drug sensitivity score (BT-474 [10]; 4-OH-tamoxifen in medium 1 µM) | drug sensitivity score (MCF-7 [11]; 4-OH-tamoxifen in medium 0 µM) | drug sensitivity score (MCF-7 [11]; 4-OH-tamoxifen in medium 1 µM) | relative IC50 (ZR-75-1 [12]; 4-OH-tamoxifen in medium 0 µM) [µM] | relative IC50 (ZR-75-1 [12]; 4-OH-tamoxifen in medium 1 µM) [µM] | relative IC50 (ZR-75-1 Tam2 [14]) [µM] | relative IC50 (ZR-75-1 Tam1 [17]) [µM] |
| --- | --- | --- | --- | --- | --- | --- | --- | --- | --- | --- | --- | --- | --- | --- | --- | --- | --- | --- | --- | --- | --- | --- | --- | --- | --- | --- | --- | --- | --- | --- |
| CCC1(c2ccc(N)cc2)CCC(=O)NC1=O (stereo unspecified) [Aminoglutethimide] | > 10 | > 10 | > 10 | > 10 | > 10 | > 10 | > 10 | – | – | – | – | 0 | 0.781 | 0 | 0 | 0 | 0 | 0 | 0 | 0 | 0 | 0 | 0 | 0.6 | 0 | 5.49 | – | > 10 | > 10 | > 10 |
| CCN(CC)CCNC(=O)c1c(C)[nH]c(/C=C2\C(=O)Nc3ccc(F)cc32)c1C | > 1 | – | > 1 | > 1 | > 1 | > 1 | > 1 | – | > 1 | 0.276 | – | 0 | 0.383 | 0.199 | 0 | 0 | 0 | 0 | 0.118 | 0 | 0 | 0 | 0 | 1.81 | 0 | 0 | > 1 | > 1 | > 1 | > 1 |
| Nc1nc(F)nc2c1ncn2[C@@H]1O[C@H](CO)[C@@H](O)[C@@H]1O [Fludarabine] | > 10 | > 10 | > 10 | > 10 | > 10 | > 10 | > 10 | – | – | > 10 | > 10 | 0 | 0 | 2.13 | 0 | 0 | 0 | 0 | 0 | 0 | 0 | 0 | 0 | 0 | 0 | 1.23 | > 10 | > 10 | > 10 | > 10 |
| C[C@]12CC[C@@H]3c4ccc(O)cc4C[C@@H](CCCCCCCCC[S+]([O-])CCCC(F)(F)C(F)(F)F)[C@H]3[C@@H]1CC[C@@H]2O (stereo partly specified) [Fulvestrant] | > 1 | > 1 | > 1 | > 1 | > 1 | > 1 | 0.00643 | – | – | > 1 | 0.045 | 0 | 5.21 | 0.0366 | 0 | 0 | 0 | 0 | 0 | 0 | 0 | 0 | 0 | 0 | 7.84 | 0.235 | > 1 | > 1 | > 1 | > 1 |
| CN1CCN(c2nc(C3=C(c4c[nH]c5ccccc45)C(=O)NC3=O)c3ccccc3n2)CC1 [Sotrastaurin] | > 10 | 1.54 | – | > 10 | > 10 | > 10 | – | – | – | 0.0515 | > 10 | 0 | 0 | 0 | 0 | 0 | 0 | 0 | 6.13 | 1.44 | 0 | 0 | 0 | 10.6 | 0.517 | 0 | > 10 | > 10 | > 10 | > 10 |
| C/C(=C\c1csc(C)n1)[C@@H]1C[C@@H]2O[C@]2(C)CCC[C@H](C)[C@H](O)[C@@H](C)C(=O)C(C)(C)[C@@H](O)CC(=O)N1 [Ixabepilone] | > 1 | > 1 | > 1 | 0.229 | > 1 | 0.415 | – | – | – | 0.436 | – | 1.7 | 0.538 | 0.349 | 0 | 0 | 0 | 0 | 0 | 0 | 0 | 2.1 | 0 | 1.39 | 0.882 | 1 | > 1 | > 1 | > 1 | > 1 |
